{
  "source": "patent US5482942A",
  "about": "“(3,4-dioxocyclobuten-1-yl)chromene, indene, and dihydronaphthalenone derivatives as smooth muscle relaxants” (American Home Products Corporation, priority 1994, dated 1996)",
  "key": {"Isolated Rat Bladder": {"test_system": "Isolated Rat Bladder", "test": "Inhibition of contractions in isolated rat bladder strips (bladder smooth muscle relaxing activity)", "design": "species or system Sprague-Dawley rats", "details": "0.5 h, 15 mM KCl-enhanced contractions, 30 min challenge, read-out: IC50 or (% Inhibition of Bladder Contraction at 30 μM)", "experimental": "Bladder smooth muscle relaxing activity of the compounds of this invention was established in accordance with standard pharmaceutically accepted test procedures in representative compounds as follows:\nSprague-Dawley rats (150-200 g) are rendered unconscious by CO2 asphyxiation and then euthanized by cervical dislocation. The bladder is removed into warm (37° C.) physiological salt solution (PSS) of the following composition (mM): NaCl, 118.4; KCl, 4.7; CaCl2, 2.5; […]; NaHCO3, 24.9; KH2 PO4, 1.2; glucose, 11.1; EDTA, 0.023; gassed with […]; pH 7.4. The bladder is opened and then cut into strips 1-2 mm in width and 7-10 mm in length. The strips are subsequently suspended in a 10 ml tissue bath under an initial resting tension of 1.5 g. The strips are held in place by two surgical clips one of which is attached to fixed hook while the other is attached to an isometric force transducer. […] The carbachol is then washed out and the tissue allowed to relax to its resting level of activity. Following one further 30 min period of recovery an additional 15 mM KCl are introduced into the tissue bath. […] Contractile activity is measured for each compound or vehicle concentration during the last min of a 30 min challenge. […]"}, "[1]": {"test_system": "Isolated Rat Aortic Tissue", "test": "Inhibition of contractions in isolated rat aortic rings (aortic smooth muscle relaxing activity)", "design": "species or system Sprague-Dawley rats", "details": "isolated rat thoracic aorta rings, 25 mM KCl contracture, cumulative addition; read-out: IC50 or (% Inhibition of Aorta Contraction at 30 μM)", "experimental": "Aortic smooth muscle relaxing activity of the compounds of this invention was established in accordance with standard pharmaceutically accepted test procedures in representative compounds as follows:\nSprague-Dawley rats (150-200 g) are rendered unconscious by CO2 asphyxiation and then euthanized by cervical dislocation. The thoracic aorta is removed into warm (37° C.) Krebs-Henseleit solution. The aorta is cleaned of fat and loose adventitia and cut into rings 3-4 mm in width. The rings are subsequently suspended between two stainless steel wire tissue holders in a 10 ml tissue bath. One wire tissue holder is attached to fixed hook while the other is attached to an isometric force transducer. Resting tension is set at 1.0 g. The tissues are allowed to recover for a period of 60 mins prior to beginning the experiment. The tissues are challenged with 25 mM KCl to elicit a contracture. The tissue are then washed repeatedly with fresh Krebs-Henseleit solution over a period of 30 mins and allowed to recover to baseline tension. 25 mM KCl is then introduced into the tissue bath to evoke a contracture that is allowed to stabilize for not less than 45 mins. Increasing concentrations of test compound or vehicle are then added to the tissue bath in a cumulative fashion.\nIsometric force developed by the aortic rings is measured using force transducer and recorded on a polygraph. […]"}},
  "data": [
    {"smiles": "CC1(C)C=C(c2c(N)c(=O)c2=O)c2cc(C#N)ccc2O1", "note": "[Example 2, 4-(2-Amino-3,4-dioxo-cyclobut-1-enyl)-2,2-dimethyl-2H-chromene-6-carbonitrile]", "values": [
      {"measurement": "IC50", "setting": "Isolated Rat Bladder", "result": "390 ± 40", "unit": "nM"},
      {"measurement": "IC50", "setting": "[1]", "result": "150 ± 20", "unit": "nM"}
    ]},
    {"smiles": "CNc1c(C2=CC(C)(C)Oc3ccc(C#N)cc32)c(=O)c1=O", "note": "[Example 3, 2,2-Dimethyl-4-(2-methylamino-3,4-dioxo-cyclobut-1-enyl)-2H-chromene-6-carbonitrile]", "values": [
      {"measurement": "IC50", "setting": "Isolated Rat Bladder", "result": "4100 ± 1800", "unit": "nM"},
      {"measurement": "IC50", "setting": "[1]", "result": "560 ± 40", "unit": "nM"}
    ]}
  ]
}
